Experimental data from ChEMBL document CHEMBL4130445, “TNF-α and IL-6 inhibitors: Conjugates of N-substituted indole and aminophenylmorpholin-3-one as anti-inflammatory agents” (Eur J Med Chem, 2017).
Each block holds one compound with its values, some of them ahead of it. Calls of active or inactive are those of the source. The rule behind the calls is not given here.

How the values were obtained:
[1] = system: BV-2; experiment: Suppression of LPS-induced morphological changes in mouse BV2 cells at 5 uM pre-incubated before LPS stimulation by phase contrast microscopy; format: functional, cell-based
[2] = Cytotoxicity in mouse BV2 cells assessed as cell viability at 100 uM incubated for 48 hrs by MTT assay (reference value: 100%); format: cell-based, BV-2; details: read-out: Activity
[3] = system: BV-2; experiment: Inhibition of LPS-induced nitric oxide production in mouse BV2 cells assessed as nitric oxide level at 20 uM pre-incubated before LPS stimulation by Griess reagent based assay (reference value: 121.09%); format: functional; parameters: scale not given: the % may be the effect or the level left
[4] = Cytotoxicity in mouse BV2 cells assessed as cell viability at 5 uM incubated for 48 hrs by MTT assay (reference value: 100%); format: cell-based, BV-2; details: read-out: Activity
[5] = Cytotoxicity in mouse BV2 cells assessed as cell viability at 80 uM incubated for 48 hrs by MTT assay (reference value: 100%); format: cell-based, BV-2; details: read-out: Activity
[6] = system: BV-2; experiment: Inhibition of LPS-induced IL6 production in mouse BV2 cells at 20 uM pre-incubated before LPS stimulation by ELISA; format: functional
[7] = system: BV-2; experiment: Inhibition of LPS-induced IL6 production in mouse BV2 cells at 10 uM pre-incubated before LPS stimulation by ELISA; format: functional
[8] = system: BV-2; experiment: Inhibition of LPS-induced IL6 production in mouse BV2 cells assessed as IL6 level at 20 uM pre-incubated before LPS stimulation by ELISA (reference value: 146.75%); format: functional; parameters: scale not given: the % may be the effect or the level left
[9] = molecular target: T1, Prostaglandin G/H synthase 2 (Homo sapiens) (UniProt P35354); experiment: Inhibition of COX2 (unknown origin) by immunoassay
T1 sequence (whole entry): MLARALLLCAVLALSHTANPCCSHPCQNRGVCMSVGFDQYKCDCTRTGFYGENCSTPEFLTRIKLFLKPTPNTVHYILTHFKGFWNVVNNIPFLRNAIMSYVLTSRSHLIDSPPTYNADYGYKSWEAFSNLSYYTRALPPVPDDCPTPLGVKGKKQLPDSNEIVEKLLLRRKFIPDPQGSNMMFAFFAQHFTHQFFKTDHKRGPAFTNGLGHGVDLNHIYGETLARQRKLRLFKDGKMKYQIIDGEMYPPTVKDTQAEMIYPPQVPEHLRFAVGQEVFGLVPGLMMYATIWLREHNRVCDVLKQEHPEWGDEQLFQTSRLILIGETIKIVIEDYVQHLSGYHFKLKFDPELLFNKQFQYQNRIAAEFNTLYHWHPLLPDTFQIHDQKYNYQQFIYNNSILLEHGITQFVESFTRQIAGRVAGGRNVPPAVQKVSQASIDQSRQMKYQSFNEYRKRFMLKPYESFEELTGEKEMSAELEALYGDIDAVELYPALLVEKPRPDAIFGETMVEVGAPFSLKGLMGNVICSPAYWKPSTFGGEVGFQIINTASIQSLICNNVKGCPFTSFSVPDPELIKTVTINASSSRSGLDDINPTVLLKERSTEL

[10] = system: Mus musculus; experiment: Analgesic activity in Swiss albino mouse model of acetic acid induced writhing assessed as inhibition of pain response at 10 mg/kg, ip dosed 30 mins before acetic acid injection; format: functional
[11] = Cytotoxicity in mouse BV2 cells assessed as cell viability at 15 uM incubated for 48 hrs by MTT assay (reference value: 100%); format: cell-based, BV-2; details: read-out: Activity
[12] = system: BV-2; experiment: Inhibition of LPS-induced TNFalpha production in mouse BV2 cells at 20 uM pre-incubated before LPS stimulation by ELISA; format: functional
[13] = system: BV-2; experiment: Inhibition of LPS-induced TNFalpha production in mouse BV2 cells assessed as TNFalpha level at 10 uM pre-incubated before LPS stimulation by ELISA (reference value: 142.71%); format: functional; parameters: scale not given: the % may be the effect or the level left
[14] = Cytotoxicity in mouse BV2 cells assessed as cell viability at 60 uM incubated for 48 hrs by MTT assay (reference value: 100%); format: cell-based, BV-2; details: read-out: Activity
[15] = system: BV-2; experiment: Suppression of LPS-induced morphological changes in mouse BV2 cells at 10 uM pre-incubated before LPS stimulation by phase contrast microscopy; format: functional, cell-based
[16] = Cytotoxicity in mouse BV2 cells assessed as cell viability at 10 uM incubated for 48 hrs by MTT assay (reference value: 100%); format: cell-based, BV-2; details: read-out: Activity
[17] = Cytotoxicity in mouse BV2 cells assessed as cell viability at 0.5 uM incubated for 48 hrs by MTT assay (reference value: 100%); format: cell-based, BV-2; details: read-out: Activity
[18] = system: BV-2; experiment: Inhibition of LPS-induced TNFalpha production in mouse BV2 cells assessed as TNFalpha level at 20 uM pre-incubated before LPS stimulation by ELISA (reference value: 142.71%); format: functional; parameters: scale not given: the % may be the effect or the level left
[19] = Cytotoxicity in mouse BV2 cells assessed as cell viability at 40 uM incubated for 48 hrs by MTT assay (reference value: 100%); format: cell-based, BV-2; details: read-out: Activity
[20] = system: BV-2; experiment: Inhibition of LPS-induced nitric oxide production in mouse BV2 cells assessed as nitric oxide level at 10 uM pre-incubated before LPS stimulation by Griess reagent based assay (reference value: 121.09%); format: functional; parameters: scale not given: the % may be the effect or the level left
[21] = Cytotoxicity in mouse BV2 cells assessed as cell viability at 1 uM incubated for 48 hrs by MTT assay (reference value: 100%); format: cell-based, BV-2; details: read-out: Activity
[22] = system: BV-2; experiment: Inhibition of LPS-induced IL6 production in mouse BV2 cells assessed as IL6 level at 10 uM pre-incubated before LPS stimulation by ELISA (reference value: 146.75%); format: functional; parameters: scale not given: the % may be the effect or the level left
[23] = system: BV-2; experiment: Inhibition of LPS-induced TNFalpha production in mouse BV2 cells at 10 uM pre-incubated before LPS stimulation by ELISA; format: functional
[24] = Cytotoxicity in mouse BV2 cells assessed as cell viability at 20 uM incubated for 48 hrs by MTT assay (reference value: 100%); format: cell-based, BV-2; details: read-out: Activity
[25] = system: BV-2; experiment: Cytotoxicity in mouse BV2 cells assessed as reduction in cell viability incubated for 48 hrs by MTT assay; format: cell-based; details: BV-2, 48 h
[26] = system: BV-2; experiment: Inhibition of LPS-induced MMP9 production production in mouse BV2 cells pre-incubated before LPS stimulation by gelatin zymography; format: functional, cell-based
[27] = system: BV-2; experiment: Inhibition of LPS-induced MMP2 production production in mouse BV2 cells pre-incubated before LPS stimulation by gelatin zymography; format: functional, cell-based
[28] = system: BV-2; experiment: Inhibition of LPS-induced MMP2 production production in mouse BV2 cells assessed as MMP2 protein level pre-incubated before LPS stimulation by gelatin zymography (reference value: 105.071%); format: functional; parameters: scale not given: the % may be the effect or the level left
[29] = system: BV-2; experiment: Inhibition of LPS-induced MMP9 production production in mouse BV2 cells assessed as MMP9 protein level pre-incubated before LPS stimulation by gelatin zymography (reference value: 105.113%); format: functional; parameters: scale not given: the % may be the effect or the level left
[30] = species: Mus musculus; experiment: Inhibition of LPS-induced NFkappaB nuclear translocation in mouse BV2 cells pre-incubated before LPS stimulation by immunostaining based confocal laser microscopy; format: cell-based
[31] = molecular target: Transcription factor Jun (Mus musculus) (UniProt P05627); experiment: Inhibition of LPS-induced AP1 nuclear translocation in mouse BV2 cells pre-incubated before LPS stimulation by immunostaining based confocal laser microscopy; format: cell-based
[32] = system: BV-2; experiment: Inhibition of LPS-induced TNFalpha production in mouse BV2 cells at 60 uM pre-incubated before LPS stimulation by ELISA; format: functional

Sequence of Transcription factor Jun (Mus musculus) (P05627 whole entry): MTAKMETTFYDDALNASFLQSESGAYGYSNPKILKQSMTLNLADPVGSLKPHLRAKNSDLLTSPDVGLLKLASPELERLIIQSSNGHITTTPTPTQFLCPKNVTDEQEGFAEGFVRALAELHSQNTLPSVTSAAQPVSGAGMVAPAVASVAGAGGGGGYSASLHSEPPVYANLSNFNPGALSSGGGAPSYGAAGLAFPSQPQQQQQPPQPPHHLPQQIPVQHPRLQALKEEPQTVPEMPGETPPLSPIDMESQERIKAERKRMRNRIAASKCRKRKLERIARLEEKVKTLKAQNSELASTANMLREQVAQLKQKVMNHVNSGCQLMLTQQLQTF

inhibition [9]: inactive
SMILES: O=C1COCCN1c1ccc(/N=C/c2cn(CCCn3cc(/C=N/c4ccc(N5CCOCC5=O)cc4)c4ccccc43)c3ccccc23)cc1
Activity [1]: Active
viability at 48 h, 100 µM [2]: 61.4%
Activity [3]: 102.1493%
viability at 48 h, 5 µM [4]: 94.1%
viability at 48 h, 80 µM [5]: 67.6%
inhibition at 20 µM [6]: 23.8%
inhibition at 10 µM [7]: 13.8%
Activity [8]: 111.7925%
inhibition in vivo at 10 mg/kg [10]: 65.5%
viability at 48 h, 15 µM [11]: 93.1%
inhibition at 20 µM [12]: 43.6%
Activity [13]: 90.26%
viability at 48 h, 60 µM [14]: 72.4%
Activity [15]: Active
viability at 48 h, 10 µM [16]: 91.3%
viability at 48 h, 0.5 µM [17]: 99.9%
Activity [18]: 80.53%
viability at 48 h, 40 µM [19]: 79.8%
Activity [20]: 107.9186%
viability at 48 h, 1 µM [21]: 97.1%
Activity [22]: 126.5089%
inhibition at 10 µM [23]: 36.8%
viability at 48 h, 20 µM [24]: 95.3%
IC50 [25]: > 100 µM

inhibition [9]: inactive
SMILES: O=C1COCCN1c1ccc(/N=C\c2cn(C(=O)c3ccccc3)c3ccccc23)cc1
Activity [1]: Active
viability at 48 h, 100 µM [2]: 52.9%
Activity [3]: 98.08%
viability at 48 h, 5 µM [4]: 87.3%
viability at 48 h, 80 µM [5]: 58.4%
Activity [8]: 185.4729%
viability at 48 h, 15 µM [11]: 86.6%
Activity [13]: 199.2439%
viability at 48 h, 60 µM [14]: 57.5%
Activity [15]: Active
viability at 48 h, 10 µM [16]: 88.6%
viability at 48 h, 0.5 µM [17]: 104%
Activity [18]: 122.9276%
viability at 48 h, 40 µM [19]: 72.6%
Activity [20]: 97.74%
viability at 48 h, 1 µM [21]: 109%
Activity [22]: 258.2615%
viability at 48 h, 20 µM [24]: 85.1%
IC50 [25]: > 100 µM

inhibition [9]: inactive
inhibition [31]: Active
SMILES: O=C1COCCN1c1ccc(/N=C\c2c[nH]c3ccccc23)cc1
Activity [1]: Active
viability at 48 h, 100 µM [2]: 101%
inhibition [26]: Active
Activity [3]: 104.8643%
viability at 48 h, 5 µM [4]: 101%
viability at 48 h, 80 µM [5]: 97.8%
inhibition at 20 µM [6]: 39.3%
inhibition at 10 µM [7]: 37.9%
Activity [8]: 89.05%
viability at 48 h, 15 µM [11]: 100%
inhibition at 20 µM [12]: 60.8%
Activity [13]: 66.71%
viability at 48 h, 60 µM [14]: 90.8%
Activity [15]: Active
inhibition [27]: Active
Activity [28]: 94.929%
Activity [29]: 96.273%
inhibition [30]: Active
viability at 48 h, 10 µM [16]: 98.5%
viability at 48 h, 0.5 µM [17]: 104%
Activity [18]: 56.03%
viability at 48 h, 40 µM [19]: 105%
Activity [20]: 104.5249%
viability at 48 h, 1 µM [21]: 105%
Activity [22]: 91.1848%
inhibition at 10 µM [23]: 53.3%
viability at 48 h, 20 µM [24]: 104%
IC50 [25]: > 100 µM

SMILES: NC(=O)N1C(=O)/C(=C(\O)c2cccs2)c2cc(Cl)ccc21 [TENIDAP]
inhibition at 60 µM [32]: 67%
